Drawing on patent publication US20080039455A1, “PYRAZOLOPYRIMIDINES AND SALTS THEREOF, PHARMACEUTICAL COMPOSITIONS COMPRISING SAME, METHODS OF PREPARING SAME AND USES OF SAME” (priority 2006, published 2008), this text covers IC50 for 37 molecules.

In general, IC50 refers to the point on the concentration scale where inhibition reaches its midpoint.

A value given as a limit tells only on which side of the number the result lay.

The experiment deals with T1, human recombinant ALK1 (GST fused to ALK1 intracellular domain [His142-Gln503]) (Homo sapiens, UniProt P37023).
T1 construct: GST fused to ALK1 intracellular domain [His142-Gln503]; made in house
T1 sequence (P37023 142-503): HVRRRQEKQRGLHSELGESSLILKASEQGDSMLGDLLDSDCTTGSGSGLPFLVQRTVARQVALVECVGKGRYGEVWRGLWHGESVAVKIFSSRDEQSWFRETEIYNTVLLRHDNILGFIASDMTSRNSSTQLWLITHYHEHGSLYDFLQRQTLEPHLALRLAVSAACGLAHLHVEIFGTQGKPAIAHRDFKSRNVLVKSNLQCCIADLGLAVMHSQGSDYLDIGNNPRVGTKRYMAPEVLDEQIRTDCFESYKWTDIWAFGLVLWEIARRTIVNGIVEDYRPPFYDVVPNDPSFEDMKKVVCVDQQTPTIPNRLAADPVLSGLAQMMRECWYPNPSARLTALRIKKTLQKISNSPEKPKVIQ
Put plainly: ALK1-Kinase Flashplate-Assay. The experiment is classed as biochemical. Conditions: 0.5 μM ATP, biotinylated α-casein substrate; read-out: Assay 1 (ALK1-Kinase Flashplate-Assay IC50 class). The method, boiled down:
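Radiometric Flashplate assay at 20 °C: GST-ALK1 intracellular domain (5 ng/well) with 1 μM biotinylated bovine α-casein, 0.5 μM ATP plus [γ-33P]ATP in Tris pH 8.0, 1 mM MnCl2, 1% or 5% DMSO, 60 min. Normalised to no-inhibitor (0%) and 10 mM EDTA (100%); IC50 by 4-parameter fit.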

As for `COc1cc(Nc2ccn3ncc(-c4cccc(C(C)=O)c4)c3n2)cc(OC)c1OC` [Example 179, 1-{3-[5-(3,4,5-Trimethoxy-phenylamino)-pyrazolo[1,5-a]pyrimidin-3-yl]-phenyl}-ethanone], the IC50 was in the range of 1000 to 10000 nM. On to `COc1cc(Nc2ccn3ncc(-c4cnn(C)c4)c3n2)cc(OC)c1OC` [Example 182, [3-(1-Methyl-1H-pyrazol-4-yl)-pyrazolo[1,5-a]pyrimidin-5-yl]-(3,4,5-trimethoxy-phenyl)-amine], for which the IC50 was in the range of 1000 to 10000 nM. Then `Cc1ccc(Nc2ccn3ncc(-c4cccc(N)c4)c3n2)cc1NS(C)(=O)=O` [Example 186], with 1000 to 10000 nM; and `COc1cccc(-c2cnn3ccc(Nc4ccc(O)cc4)nc23)c1` [Example 192, 4-[3-(3-Methoxy-phenyl)-pyrazolo[1,5-a]pyrimidin-5-ylamino]-phenol], with less than 1000 nM; and `CC(=O)c1cccc(-c2cnn3ccc(Nc4ccc(O)cc4)nc23)c1` [Example 193, 1-{3-[5-(4-Hydroxy-phenylamino)-pyrazolo[1,5-a]pyrimidin-3-yl]-phenyl}-ethanone], with 1000 to 10000 nM. The result for `Cn1cc(-c2cnn3ccc(Nc4ccc(O)cc4)nc23)cn1` [Example 194, 4-[3-(1-Methyl-1H-pyrazol-4-yl)-pyrazolo[1,5-a]pyrimidin-5-ylamino]-phenol] reads 1000 to 10000 nM; that for `COc1cccc(-c2cnn3ccc(Nc4ccc(OC)nc4)nc23)c1` [Example 196, [3-(3-Methoxy-phenyl)-pyrazolo[1,5-a]pyrimidin-5-yl]-(6-methoxy-pyridin-3-yl)-amine], less than 1000 nM; that for `COc1ccc(Nc2ccn3ncc(-c4cccc(NS(C)(=O)=O)c4)c3n2)cn1` [Example 197, N-{3-[5-(6-Methoxy-pyridin-3-ylamino)-pyrazolo[1,5-a]pyrimidin-3-yl]-phenyl}-methanesulfonamide], 1000 to 10000 nM. For the molecule `COc1ccc(Nc2ccn3ncc(-c4cnn(C)c4)c3n2)cn1` [Example 198, (6-Methoxy-pyridin-3-yl)-[3-(1-methyl-1H-pyrazol-4-yl)-pyrazolo[1,5-a]pyrimidin-5-yl]-amine], the IC50 is less than 1000 nM. Consider `COc1ccc(Nc2ccn3ncc(-c4cnn(Cc5ccccc5)c4)c3n2)cn1` [Example 199, [3-(1-Benzyl-1H-pyrazol-4-yl)-pyrazolo[1,5-a]pyrimidin-5-yl]-(6-methoxy-pyridin-3-yl)-amine], for which the IC50 lay within 1000 to 10000 nM. Consider `COc1cccc(-c2cnn3ccc(Nc4ccc(NS(=O)(=O)c5ccc(C)cc5)cc4)nc23)c1` [Example 200, N-{4-[3-(3-Methoxy-phenyl)-pyrazolo[1,5-a]pyrimidin-5-ylamino]-phenyl}-4-methyl-benzenesulfonamide], for which the IC50 is 1000 to 10000 nM. `CC(=O)c1cccc(-c2cnn3ccc(Nc4ccc(NS(=O)(=O)c5ccc(C)cc5)cc4)nc23)c1` [Example 201, N-{4-[3-(3-Acetyl-phenyl)-pyrazolo[1,5-a]pyrimidin-5-ylamino]-phenyl}-4-methyl-benzenesulfonamide]: the IC50 lay in the range of 1000 to 10000 nM.

In the case of `Nc1ccc(C(=O)Nc2ccc(Nc3ccn4ncc(-c5cnn(Cc6ccccc6)c5)c4n3)cc2)cc1` [Example 204, 4-Amino-N-{4-[3-(1-benzyl-1H-pyrazol-4-yl)-pyrazolo[1,5-a]pyrimidin-5-ylamino]-phenyl}-benzamide], the IC50 was 1000 to 10000 nM. Consider `Cc1ccc(Nc2ccn3ncc(-c4cccc(NS(C)(=O)=O)c4)c3n2)cc1NS(C)(=O)=O` [Example 209, N-{5-[3-(3-Methanesulfonylamino-phenyl)-pyrazolo[1,5-a]pyrimidin-5-ylamino]-2-methyl-phenyl]-methanesulfonamide], for which the IC50 is less than 1000 nM.

On to `Cc1ccc(Nc2ccn3ncc(-c4cnn(C)c4)c3n2)cc1NS(C)(=O)=O` [Example 210, N-{2-Methyl-5-[3-(1-methyl-1H-pyrazol-4-yl)-pyrazolo[1,5-a]pyrimidin-5-ylamino]-phenyl}-methanesulfonamide], for which the IC50 is less than 1000 nM. Then `NC(=O)c1cccc(-c2cnn3ccc(NCc4ccncc4)nc23)c1` [Example 213, 3-{5-[(Pyridin-4-ylmethyl)-amino]-pyrazolo[1,5-a]pyrimidin-3-yl}-benzamide], with 1000 to 10000 nM. Take `COc1cccc(-c2cnn3ccc(NCc4ccncc4)nc23)c1` [Example 215, [3-(3-Methoxy-phenyl)-pyrazolo[1,5-a]pyrimidin-5-yl]-pyridin-4-ylmethyl-amine]: the IC50 fell in the range of 1000 to 10000 nM. `CC(=O)c1cccc(-c2cnn3ccc(NCc4ccncc4)nc23)c1` [Example 216, 1-(3-{5-[(Pyridin-4-ylmethyl)-amino]-pyrazolo[1,5-a]pyrimidin-3-yl}-phenyl)-ethanone]: the IC50 lay within 1000 to 10000 nM. Regarding `c1cc(CNc2ccn3ncc(-c4cn[nH]c4)c3n2)ccn1` [Example 218, [3-(1H-Pyrazol-4-yl)-pyrazolo[1,5-a]pyrimidin-5-yl]-pyridin-4-ylmethyl-amine], the IC50 lay in the range of 1000 to 10000 nM. For `c1ccc(Cn2cc(-c3cnn4ccc(NCc5ccncc5)nc34)cn2)cc1` [Example 219, [3-(1-Benzyl-1H-pyrazol-4-yl)-pyrazolo[1,5-a]pyrimidin-5-yl]-pyridin-4-ylmethyl-amine], the IC50 is 1000 to 10000 nM.

With `NC(=O)c1cccc(-c2cnn3ccc(NC4CCC(O)CC4)nc23)c1` (stereo not shown) [Example 220, 3-[5-(4-Hydroxy-cyclohexylamino)-pyrazolo[1,5-a]pyrimidin-3-yl]-benzamide], the half-maximal inhibitory concentration (IC50) fell in the range of 1000 to 10000 nM. For `Cn1cc(-c2cnn3ccc(NC4CCC(O)CC4)nc23)cn1` (stereo not shown) [Example 221, 4-[3-(1-Methyl-1H-pyrazol-4-yl)-pyrazolo[1,5-a]pyrimidin-5-ylamino]-cyclohexanol], the 50% inhibitory concentration (IC50) is 1000 to 10000 nM. The result for `NC(=O)c1cccc(-c2cnn3ccc(NCc4cccnc4)nc23)c1` [Example 223, 3-{5-[(Pyridin-3-ylmethyl)-amino]-pyrazolo[1,5-a]pyrimidin-3-yl}-benzamide] reads 1000 to 10000 nM. The result for `CC(=O)c1cccc(-c2cnn3ccc(NCc4cccnc4)nc23)c1` [Example 227, 1-(3-{5-[(Pyridin-3-ylmethyl)-amino]-pyrazolo[1,5-a]pyrimidin-3-yl}-phenyl)-ethanone] reads 1000 to 10000 nM. Consider `Cn1cc(-c2cnn3ccc(NCc4cccnc4)nc23)cn1` [Example 230, [3-(1-Methyl-1H-pyrazol-4-yl)-pyrazolo[1,5-a]pyrimidin-5-yl]-pyridin-3-ylmethyl-amine], for which the IC50 was 1000 to 10000 nM. Then `NC(=O)c1cccc(-c2cnn3ccc(Nc4ccc(N5CCOCC5)cc4)nc23)c1` [Example 232, 3-[5-(4-Morpholin-4-yl-phenylamino)-pyrazolo[1,5-a]pyrimidin-3-yl]-benzamide], with less than 1000 nM.

Take `COc1cccc(-c2cnn3ccc(Nc4ccc(N5CCOCC5)cc4)nc23)c1` [Example 233, [3-(3-Methoxy-phenyl)-pyrazolo[1,5-a]pyrimidin-5-yl]-(4-morpholin-4-yl-phenyl)-amine]: the IC50 lay within 1000 to 10000 nM. Then `c1csc(-c2cnn3ccc(Nc4ccc(N5CCOCC5)cc4)nc23)c1` [Example 234, (4-Morpholin-4-yl-phenyl)-(3-thiophen-2-yl-pyrazolo[1,5-a]pyrimidin-5-yl)-amine], with 1000 to 10000 nM; and `Cn1cc(-c2cnn3ccc(Nc4ccc(N5CCOCC5)cc4)nc23)cn1` [Example 235, [3-(1-Methyl-1H-pyrazol-4-yl)-pyrazolo[1,5-a]pyrimidin-5-yl]-(4-morpholin-4-yl-phenyl)-amine], with 1000 to 10000 nM. The result for `COc1cccc(-c2cnn3ccc(Nc4ccccc4)nc23)c1` [Example 241, [3-(3-Methoxy-phenyl)-pyrazolo[1,5-a]pyrimidin-5-yl]-phenyl-amine] reads 1000 to 10000 nM; that for `c1ccc(Nc2ccn3ncc(-c4cccs4)c3n2)cc1` [Example 242, Phenyl-(3-thiophen-2-yl-pyrazolo[1,5-a]pyrimidin-5-yl)-amine], 1000 to 10000 nM; that for `CS(=O)(=O)Nc1cccc(-c2cnn3ccc(Nc4ccccc4)nc23)c1` [Example 243, N-[3-(5-Phenylamino-pyrazolo[1,5-a]pyrimidin-3-yl)-phenyl]-methanesulfonamide], less than 1000 nM.

Take `Cn1cc(-c2cnn3ccc(Nc4ccccc4)nc23)cn1` [Example 244, [3-(1-Methyl-1H-pyrazol-4-yl)-pyrazolo[1,5-a]pyrimidin-5-yl]-phenyl-amine]: the IC50 is less than 1000 nM. Take `O=C(O)c1ccc(-c2cnn3ccc(Nc4ccccc4)nc23)cc1` [Example 248, 4-(5-Phenylamino-pyrazolo[1,5-a]pyrimidin-3-yl)-benzoic acid]: the IC50 was in the range of 1000 to 10000 nM.

As to `COc1cncc(-c2cnn3ccc(Nc4ccccc4)nc23)c1` [Example 251, [3-(5-Methoxy-pyridin-3-yl)-pyrazolo[1,5-a]pyrimidin-5-yl]-phenyl-amine], the IC50 lay in the range of 1000 to 10000 nM. For the molecule `COc1cc(-c2cnn3ccc(Nc4ccc(Oc5ccccc5)cc4)nc23)cc(OC)c1OC` [Example 254, (4-Phenoxy-phenyl)-[3-(3,4,5-trimethoxy-phenyl)-pyrazolo[1,5-a]pyrimidin-5-yl]-amine], the IC50 is 1000 to 10000 nM. Turning to `O=C(O)c1ccc(-c2cnn3ccc(Nc4ccc(Oc5ccccc5)cc4)nc23)cc1` [Example 255, 4-[5-(4-Phenoxy-phenylamino)-pyrazolo[1,5-a]pyrimidin-3-yl]-benzoic acid], the IC50 was less than 1000 nM.
